Measurements from publication PMC4301037, “Identification and Structure–Function Analysis of Subfamily Selective G Protein-Coupled Receptor Kinase Inhibitors” (ACS Chemical Biology, 2014).
Read-outs that look alike come from different tables or passages of the source.

Target: T1, bovine GRK5 (Bos taurus, UniProt P43249)
T1 construct: when using full-length kinases as the receptor[37] instead of isolated kinase domains; made in house
Test: Primary DSF inhibitor screen, GRK5
Type: binding

[1] = 10 μM compound, 2 μM kinase, relative to DMSO control, read-out: ΔTm, primary screen, GRK5
[2] = 10 μM compound, 2 μM kinase, relative to DMSO control
[3] = read-out: ΔTm, primary screen, GRK5, 10 μM compound, 2 μM kinase, relative to DMSO control

T1 sequence (P43249 whole entry, the tested form may be a part): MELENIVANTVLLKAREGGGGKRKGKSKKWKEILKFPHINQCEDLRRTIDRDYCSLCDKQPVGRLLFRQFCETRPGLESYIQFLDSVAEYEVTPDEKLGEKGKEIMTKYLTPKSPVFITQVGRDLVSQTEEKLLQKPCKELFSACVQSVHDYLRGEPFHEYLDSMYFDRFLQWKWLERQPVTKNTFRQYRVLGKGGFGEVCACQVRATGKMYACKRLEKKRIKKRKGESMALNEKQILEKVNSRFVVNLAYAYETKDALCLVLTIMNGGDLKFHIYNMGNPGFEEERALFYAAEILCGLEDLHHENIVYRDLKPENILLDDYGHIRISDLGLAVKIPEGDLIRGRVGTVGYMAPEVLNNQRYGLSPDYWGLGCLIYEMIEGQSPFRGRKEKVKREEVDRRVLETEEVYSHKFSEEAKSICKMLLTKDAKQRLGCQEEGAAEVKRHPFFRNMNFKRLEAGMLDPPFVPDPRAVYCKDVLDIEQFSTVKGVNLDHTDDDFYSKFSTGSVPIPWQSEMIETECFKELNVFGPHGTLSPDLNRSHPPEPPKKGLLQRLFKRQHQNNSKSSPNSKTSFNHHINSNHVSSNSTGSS

Compound	ΔTm at 10 µM [1]	ΔTm, primary screen, GRK5 [2]	also measured
CCCN1CCCC(c2ccc(Nc3nc(Nc4cc(F)ccc4C(N)=O)c4cc[nH]c4n3)c(OC)c2)C1 (centres unmarked) [GSK1173862A]	4.75 °C		
Nc1ncnc2occ(-c3ccc(NC(=O)Nc4cccc(C(F)(F)F)c4)cc3)c12 [GW795493X]	4.96 °C		
CS(=O)(=O)CCN(CC#N)Cc1ccc(-c2ccc3ncnc(Nc4ccc(OCc5cccc(F)c5)c(Cl)c4)c3c2)o1 [GW616030X]	3.29 °C		
COc1cc(N2CCN(C(C)C)CC2)ccc1Nc1nc(Nc2ccc(F)cc2C(N)=O)c2cc[nH]c2n1 [GSK1220512A]	3.05 °C		
Cc1ccc(NC(=O)CC2CC2)cc1-c1ccc(C(=O)NCC2CC2)cc1 [GW796920X]	3.82 °C		
CN(C)CCCn1cc(C2=C(c3c[nH]c4ccccc34)C(=O)NC2=O)c2ccccc21.Cl [BIM I, 2-[1-(3-Dimethylaminopropyl)-1H-indol-3-yl]-3-(1H-indol-3-yl)maleimide, HCl]		6.45 °C	
NS(=O)(=O)c1ccc(NN=C2C(=O)Nc3ccc(C(=O)NCc4ccncc4)cc32)cc1 [GW300657X]	3.89 °C		
O=C1NC(=O)C(c2c[nH]c3ccccc23)=C1c1c[nH]c2ccccc12 [BIM 4, bisindolylmaleimide IV]		3.11 °C	
Cdk1/2 Inhibitor III		3.6 °C	
CN1CCN(CCCNc2nc3ccc(Oc4ccc(NC(=O)Nc5cc(C(F)(F)F)ccc5F)cc4)cc3[nH]2)CC1 [GW700494A]	3.97 °C		
C[C@@H](Oc1cc(-n2cnc3ccc(OCC4CCN(C)CC4)cc32)sc1C(N)=O)c1ccccc1C(F)(F)F [GSK326090A]	2.06 °C		
CC(=O)Nc1cccc(C#Cc2cncnc2Nc2ccc(OCc3cccc(F)c3)c(Cl)c2)c1 [GW703087X]	3.36 °C		
CC(C)(C)c1nc2c3ccc(F)cc3c3c(=O)[nH]ccc3c2[nH]1 [JAK Inhibitor I, 2-(1,1-Dimethylethyl)-9-fluoro-3,6-dihydro-7H-benz[h]-imidaz[4,5-f]isoquinolin-7-one]		8.13 °C	
Cl.Cl.NCCNc1ncc(C(N)=O)c(Nc2cccc(C(F)(F)F)c2)n1 [Syk Inhibitor II]		2.43 °C	
Brc1c(Br)c(Br)c2[nH]nnc2c1Br [4,5,6,7-Tetrabromobenzo-triazole]		8.22 °C	
c1cc(-c2cnn3nc(N4CCOCC4)ccc23)nc(NC2CC2)n1 [GW708336X]			ΔTm at 10 µM [3]: 2.8 °C
CC1=C(C(=O)Nc2ccc3[nH]nc(C)c3c2)C(c2ccc(C(F)(F)F)cc2)CC(=O)N1 (centres unmarked) [GSK466314A]	3.54 °C		
Nc1nccc(C#Cc2cncnc2Nc2ccc(OCc3cccc(F)c3)c(Cl)c2)n1 [GW799251X]	4.33 °C		
IGF-1R Inhibitor II		2.42 °C	
CC(C)=Cc1cccc2c1C(=NNc1ccc(S(N)(=O)=O)cc1)C(=O)N2 [GW396574X]	2.08 °C		
Nc1nc(Nc2ccc(S(N)(=O)=O)cc2)nn1C(=O)c1c(F)cccc1F [Aurora/Cdk Inhibitor]		5.41 °C	
O=C(O)c1ccc2c3c1cccc3c(=O)n1c3ccccc3nc21 [STO-609]	3.24 °C		
Wee1/Chk1 inhibitor		4.89 °C	
Nc1nc(-c2ccc(F)cc2)c(-c2ccc3ncccc3n2)s1 [GW785804X]	3.16 °C		

Compound	ΔTm at 10 µM [1]	ΔTm, primary screen, GRK5 [2]	also measured
Cn1cc(C=C2C(=O)Nc3cccnc32)c2ccccc21 [GW441756X]	2.82 °C		
NC(=O)Nc1sc(-c2ccccc2)cc1C(N)=O [IKK-2 Inhibitor VI]		2.57 °C	
COC(=O)Nc1nc2ccc(Oc3ccc(NC(=O)Nc4cccc(Br)c4)cc3)cc2[nH]1 [GW694234A]	4.08 °C		
Nc1ncnc2occ(-c3ccc(NC(=O)Nc4cc(C(F)(F)F)ccc4F)cc3)c12 [GW770249X]	3.19 °C		
Clc1ccc(CNc2nccc(-c3cnn4ncccc34)n2)cc1 [GW781673X]			ΔTm at 10 µM [3]: 2.27 °C
O=c1c(-c2ccc(O)cc2)coc2cc(O)cc(O)c12 [Genistein, 4',5,7-Trihydroxyisoflavone]	2.46 °C		
O=C(Nc1ccc(Oc2ccc3nc(NC(=O)c4ccccc4)[nH]c3c2)cc1)Nc1cc(C(F)(F)F)ccc1F [GW709042A]	3.88 °C		
NC(=O)c1sc(-n2cnc3ccc(C(F)(F)F)cc32)cc1OCc1ccccc1Br [GW853606X]	4.43 °C		
CS(=O)(=O)CCNCc1ccc(-c2ccc3ncnc(Nc4ccc(OCc5ccccc5)c(Cl)c4)c3c2)o1 [GW574783B]	4.25 °C		
O=C1Nc2ccccc2/C1=C1\CCc2cc(O)ccc21 [GR105659X]	3.25 °C		
Cc1cc(O)cc(C)c1/C=C/c1cncc(C(=O)OC(C)(C)C)c1 [GW439255X]	2.66 °C		
COC(=O)Nc1nc2ccc(S(=O)(=O)c3ccc(NC(=O)Nc4cc(C(F)(F)F)ccc4F)cc3)cc2[nH]1 [GW680908A]	4.07 °C		
NC(=O)c1cccc(Nc2nccc(Nc3cccc(F)c3)n2)c1 [GW759710A]	2.68 °C		
CS(=O)(=O)c1cccc(CNc2nc(Nc3ccc4c(c3)CCC(=O)N4)ncc2C(F)(F)F)c1 [PF 573228]		2.67 °C	
O=C(Nc1n[nH]c2nc(-c3ccco3)c(Br)cc12)C1CC1 [SB-739452]	2.03 °C		
CCS(=O)(=O)c1ccc(OC)c(Nc2ncc(-c3ccccc3Cl)o2)c1 [GW622055X]	2.14 °C		
COC(=O)Nc1nc2ccc(Oc3cccc(NC(=O)Nc4cc(C(F)(F)F)ccc4F)c3)cc2[nH]1 [GW659386A]	2.51 °C		
COC(=O)Nc1nc2ccc(Sc3ccc(NC(=O)Nc4cc(C(F)(F)F)ccc4F)cc3)cc2[nH]1 [GW607049C]	3.59 °C		
O [Water]		2.01 °C	
Cn1cc(C2=C(c3ccc(Cl)cc3Cl)C(=O)NC2=O)c2ccccc21 [SB216763]	2.78 °C		
Nc1ncnc2c1c(I)cn2[C@@H]1O[C@H](CO)[C@@H](O)[C@H]1O [5-Iodotubercidin, 4-Amino-5-iodo-7-(b-D-ribofuranosyl)pyrrolo[2,3-d]pyrimidine]		2.22 °C	
O=C1Nc2ccccc2/C1=C\c1cnc[nH]1 [(Z,E)-3-(Imidazol-4-ylmethylene)indolin-2-one]		4.8 °C	
CCc1nn2ncccc2c1-c1ccnc(NC2CC2)n1 [GW683768X]	2.22 °C		
NC1=NC(=O)C(=C2CCNC(=O)c3[nH]c(Br)cc32)N1 [10Z-Hymenialdisine, 4-(2-Amino-4-oxo-2-imidazolidin-5-ylidene)-2-bromo-4,5,6,7-tetrahydropyrrolo[2,3-c]azepin-8-one]		4.5 °C	

Compound	ΔTm at 10 µM [1]	ΔTm, primary screen, GRK5 [2]	also measured
O=C1NC(=NCc2cccs2)S/C1=C\c1ccc2ncccc2c1 [RO-3306]		5.48 °C	
O=C(Nc1ccc(Oc2ccc3nc(NC(=O)c4ccco4)[nH]c3c2)cc1)Nc1cc(C(F)(F)F)ccc1F [GW683134A]	2.32 °C		
COC(=O)[C@@]1(O)C[C@H]2O[C@]1(C)n1c3ccccc3c3c4c(c5c6ccccc6n2c5c31)C(=O)NC4 [K252a]		9.89 °C	
NS(=O)(=O)c1ccc(N/N=C2\C(=O)Nc3ccc(C(=O)NCCc4c[nH]cn4)cc32)cc1 [GW300660X]	3.03 °C		
CC(C)[C@H](CO)Nc1nc(Nc2cccc(Cl)c2)c2ncn(C(C)C)c2n1 [Purvalanol A, 2-(1R-Isopropyl-2-hydroxyethylamino)-6-(3-chloroanilino)-9-isopropyl-purine]	6.44 °C		
NS(=O)(=O)c1ccc(NN=C2C(=O)Nc3ccc(C(=O)NCCCn4ccnc4)cc32)cc1 [GW290597X]	3.72 °C		
CCNC(=O)O[C@H]1CN[C@H](C#Cc2cc3ncnc(Nc4ccc(OCc5cccc(F)c5)c(Cl)c4)c3s2)C1 [GSK192082A]	2.97 °C		
O=C1Nc2ccccc2C1=Cc1c(Cl)[nH]c2ccccc12 [3-(2-Chloro-3-indolylmethylene)-1,3-dihydroindol-2-one]		2.98 °C	
Cc1cc(C=C2C(=O)C=CC2=O)cc(C)c1O [TX-1918, 2-((3,5-dimethyl-4-hydroxyphenyl)-methylene)-4-cyclopentene-1,3-dione]		2.21 °C	
CN(C)C(=O)O[C@@H]1CN[C@@H](C#Cc2cc3ncnc(Nc4ccc(OCc5cccc(F)c5)c(Cl)c4)c3s2)C1 [GSK238063A]	2.93 °C		
CS(=O)(=O)CCNCc1coc(-c2ccc3ncnc(Nc4ccc(OCc5ccccc5)cc4)c3c2)c1 [GW566221A]	2.58 °C		
O=c1cc(-c2ccc(O)cc2)oc2cc(O)cc(O)c12 [Apigenin, 4',5,7-Trihydroxyflavone]	2.9 °C		
CC(C)n1cnc2c(Nc3cccc(Cl)c3)nc(NCCO)nc21 [Compound 52, 2-(2-Hydroxyethylamino)-6-(3-chloroanilino)-9-isopropylpurine]		5.53 °C	
NS(=O)(=O)c1ccc(NC=C2C(=O)Nc3ccc4ncsc4c32)cc1 [GW589933X]	4.8 °C		
O=C1Nc2ccccc2/C1=C/Nc1ccc2[nH]c(=O)[nH]c2c1 [GW284408X]	2.4 °C		
COC(=O)Nc1nc2ccc(Oc3ccc(NC(=O)Nc4cccc(C(=O)O)c4)cc3)cc2[nH]1 [GW701427A]	3.25 °C		
COc1ccc2c(c1)/C(=C/c1cnc[nH]1)C(=O)N2 [SU9516, 3-[1-(3H-Imidazol-4-yl)-meth-(Z)-ylidene]-5-methoxy-1,3-dihydro-indol-2-one]	3.59 °C		
O=C1NC(=O)C(c2cn(CCCn3ccnc3)c3ccccc23)=C1Nc1ccccc1 [PKC beta inhibitor]		3.13 °C	
Nc1nonc1-c1nc2cnccc2n1C1CC1 [SB-736302]	2.86 °C		
CS(=O)(=O)CCNCc1ccc(-c2ccc3ncnc(Nc4ccc(OCc5ccccc5)c(Br)c4)c3c2)o1 [GW580496A]	4.33 °C		
COc1cc(C)c(N(C)C(=O)CN(C)C)cc1Nc1nc(Nc2cccc(F)c2C(N)=O)c2cc[nH]c2n1 [GSK2219385A]	3.58 °C		
CCCN1CCC=C(c2ccc(Nc3nc(Nc4ccccc4C(N)=O)c4cc[nH]c4n3)c(C)c2)C1 [GSK994854A]	4.92 °C		
O=C1c2ccccc2-c2n[nH]c3cccc1c23 [JNK Inhibitor II, Anthra[1,9-cd]pyrazol-6(2H)-one]		2.19 °C	
